Measured values reported in patent publication US20240191177A1, “GROWTH PROMOTER FOR LACTIC ACID COCCI” (KIRIN HOLDINGS KABUSHIKI KAISHA, priority 2002, published 2024).

Legend:
Assay type in all cases: cell-based
[1] = tested on: Lactococcus lactis subsp. lactis JCM5805 strain; test: Growth promoting effect, MRS medium, anaerobic cultivation (OD600)
Method: A Lactococcus lactis subsp. lactis JCM5805 strain was used as the lactic acid coccus.
The bacteria were counted by measuring the OD600 (turbidity) of the medium using an absorbance meter (Biochrom GeneQuant 1300).
Measured values were expressed as mean±standard error. One-way analysis of variance was followed by Tukey's test, and cases where p<0.05 relative to the control group were evaluated as having a significant difference.

[2] = tested on: Lactococcus lactis subsp. lactis JCM5805 strain; test: Growth promoting effect, GM17 medium, aerobic cultivation (OD600); conditions: 0.5 to 2% by mass, 30° C. 24 hours, FIG. 4
Method: (§1) The lactic acid coccus described in Example 1, item (1), A was used.
The medium used was GM17 medium. […] Next, the bacterial cells were inoculated (seeded) so that the concentration of the bacterial cells was 0.1% (v/v) with respect to 10 ml of the prepared medium, and the medium inoculated with the bacterial cells was placed in an automatic cultivation searching device OT-201 (Oriental Instruments; sometimes referred to as “bioplotter” herein), and cultivated at 30° C. for 24 hours (stirring intensity condition: Medium).
(§2) Measurement was performed in a similar manner as described in Example 1, item (1), C.
(§3) Analysis was performed in a similar manner as described in Example 1, item (1), D.

[3] = tested on: Lactococcus lactis subsp. lactis JCM5805 strain; test: Growth promoting effect, GM17 medium, anaerobic cultivation (OD600); conditions: 0.5 to 2% by mass, 30° C. 24 hours, FIG. 3
Excerpt: as §1
The medium used was a medium obtained by adding 20 g/L of glucose to M17 medium (Difco M17 Broth, BD; the composition thereof is indicated in Table 2; the same applies hereinafter in the present specification) (sometimes referred to as “GM17 medium” herein). […] Next, the bacterial cells were inoculated (seeded) in a 15-ml conical tube (FALCON) so that the concentration of the bacterial cells was 0.1% (v/v) with respect to 10 ml of the prepared medium, and cultivated at 30° ° C. for 24 hours in an incubator (TOKYO […] CO., LTD.) (static cultivation).
as §2, §3

[4] = tested on: Pediococcus damnosus; test: Growth promoting effect on lactic acid cocci of the genus Pediococcus, MRS medium, anaerobic (Example 6); conditions: strain JCM5886, MRS medium, αKG 0.1 to 4 or 1 to 4% by mass, malic acid 0.1 to 2 or 1 to 2% by mass, FIG. 8
Method: (§4) The lactic acid cocci of the genus Pediococcus indicated in Table 5 were used as the bacterial cells.
(§5) Cultivation was performed in a similar manner as described in Example 1, item (1), B (i), except that α-ketoglutaric acid (concentrations shown in FIG. 8A (0.1 to 4% by mass) and FIG. 8C (1 to 4% by mass)) and malic acid (concentrations shown in FIG. 8B (0.1 to 2% by mass) and FIG. 8D (1 to 2% by mass)) were each added, as the dicarboxylic acids, to the medium (anaerobic cultivation).
as §2, §3

[5] = tested on: Pediococcus acidilactici; test: as above; conditions: strain JCM8797, MRS medium, αKG 0.1 to 4 or 1 to 4% by mass, malic acid 0.1 to 2 or 1 to 2% by mass, FIG. 8
Method: as §4, §5, §2, §3

[6] = tested on: Lactococcus lactis subsp. lactis JCM5805 strain; test: Growth promoting effect, MRS medium, aerobic cultivation (OD600); conditions: 0.5 to 2.0% by mass, 30° C. 24 hours, FIG. 2
Method: A Lactococcus lactis subsp. lactis JCM5805 strain was used as the lactic acid coccus. The medium used was MRS medium. […] Next, the bacterial cells were inoculated (seeded) so that the concentration of the bacterial cells was 0.1% (v/v) with respect to 10 ml of the medium, and the medium inoculated with the bacterial cells was placed in an automatic cultivation searching device OT-201 (Oriental Instruments: sometimes referred to as “bioplotter” herein), and cultivated at 30° ° C. for 24 hours (stirring intensity condition: Medium). The bacteria were counted by measuring the OD600 (turbidity) of the medium using an absorbance meter (Biochrom GeneQuant 1300). Measured values were expressed as mean±standard error. One-way analysis of variance was followed by Tukey's test, and cases where p<0.05 relative to the control group were evaluated as having a significant difference.

[7] = 0.01 to 4.0% by mass, 30° C. 24 hours, FIG. 1A/1C

| SMILES | growth of the lactic acid coccus (OD600) as compared with the control ([1]; citric acid 0.25 to 1% by mass, FIG. 7) | growth of the lactic acid coccus (OD600) as compared with the control [1, 7] | growth of the lactic acid coccus (OD600) as compared with the control [2] | growth of the lactic acid coccus (OD600) as compared with the control [3] | growth of the lactic acid cocci belonging to the genus Pediococcus (OD600) as compared with the control [4] | growth of the lactic acid cocci belonging to the genus Pediococcus (OD600) as compared with the control [5] | growth of the lactic acid coccus (OD600) as compared with the control [6] |
| --- | --- | --- | --- | --- | --- | --- | --- |
| O=C(O)CC(O)(CC(=O)O)C(=O)O [citric acid, reference compound] | significantly promoted | – | – | – | – | – | – |
| O=C(O)CC(O)C(=O)O (stereo not shown) [malic acid] | – | significantly promoted in a concentration-dependent manner | promoted in a concentration-dependent manner | significantly promoted | significantly promoted in a concentration-dependent manner | significantly promoted in a concentration-dependent manner | significantly promoted in a concentration-dependent manner |
| O=C(O)CCC(=O)C(=O)O [αKG, α-ketoglutaric acid] | – | significantly promoted in a concentration-dependent manner | promoted in a concentration-dependent manner | significantly promoted | significantly promoted in a concentration-dependent manner | significantly promoted in a concentration-dependent manner | significantly promoted in a concentration-dependent manner |
